Measurements published in ChEMBL document CHEMBL4359863, “Structure-guided development of purine amide, hydroxamate, and amidoxime for the inhibition of non-small cell lung cancer” (Eur J Med Chem, 2019).
Blank lines part the entries; values can stand above or below the molecule they belong to. Calls of active or inactive are those of the source. The calls are words filed in the database; no cut-off is given here.

Key:
Tubulin (Homo sapiens) [1] = molecular target: T1, Tubulin (Homo sapiens) (UniProt P68371+Q9H4B7+P0DPH7+P68366+Q13509+Q71U36+P04350+Q3ZCM7+P07437+P68363+Q9BQE3+Q6PEY2+Q13885+Q9BVA1+Q9BUF5); experiment: Induction of microtubule fragmentation in human NCI-H1975 cells at 50 nM incubated for 12 hrs by DAPI staining based laser confocal microscopic method; format: cell-based
Tubulin (Homo sapiens) [2] = molecular target: T1, Tubulin (Homo sapiens); experiment: Induction of microtubule fragmentation in human NCI-H1975 cells at 30 nM incubated for 12 hrs by DAPI staining based laser confocal microscopic method; format: cell-based
Tubulin (Homo sapiens) [3] = molecular target: T1, Tubulin (Homo sapiens); experiment: Induction of microtubule fragmentation in human NCI-H1975 cells at 140 nM incubated for 12 hrs by DAPI staining based laser confocal microscopic method; format: cell-based
[4] = molecular target: Katanin p60 ATPase-containing subunit A1 (Homo sapiens) (UniProt O75449); experiment: Binding affinity to katanin p60 in human NCI-H1975 cells using biotin labelled compound incubated for 16 hrs by streptavidin based immunoprecipitation method; format: cell-based
Katanin p60 ATPase-containing subunit A1 (Homo sapiens), sequence (O75449 whole entry): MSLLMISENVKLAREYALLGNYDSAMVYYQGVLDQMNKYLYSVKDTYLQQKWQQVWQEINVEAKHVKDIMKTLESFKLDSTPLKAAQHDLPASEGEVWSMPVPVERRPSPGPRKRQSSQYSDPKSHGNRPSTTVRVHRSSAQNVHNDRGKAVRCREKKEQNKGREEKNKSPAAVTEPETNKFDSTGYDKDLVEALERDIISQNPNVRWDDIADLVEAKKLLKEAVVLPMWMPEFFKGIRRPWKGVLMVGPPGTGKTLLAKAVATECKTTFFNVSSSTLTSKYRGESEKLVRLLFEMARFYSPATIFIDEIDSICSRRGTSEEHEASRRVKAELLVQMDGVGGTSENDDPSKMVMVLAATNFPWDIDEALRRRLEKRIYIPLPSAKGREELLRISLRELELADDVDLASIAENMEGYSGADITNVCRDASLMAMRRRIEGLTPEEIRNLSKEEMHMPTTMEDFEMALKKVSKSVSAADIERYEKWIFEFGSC

NCI-H1975 = experiment: Antiproliferative activity against human NCI-H1975 cells incubated for 48 hrs by celltiter-Glo assay; format: functional, cell-based; settings: NCI-H1975, 48 h

SMILES: CCOc1ccc(-c2nc(/C(N)=N/O)c3[nH]c(=O)n(-c4ccccc4OC)c3n2)cc1
Activity (Tubulin (Homo sapiens) [1]): Active

SMILES: CCOc1ccc(-c2nc(C(N)=O)c3[nH]c(=O)n(-c4ccccc4OC)c3n2)cc1
Activity (Tubulin (Homo sapiens) [2]): Active

SMILES: CCOc1ccc(-c2nc(C(=O)NO)c3[nH]c(=O)n(-c4ccccc4OC)c3n2)cc1
Activity (Tubulin (Homo sapiens) [3]): Active

SMILES: CCOc1ccc(-c2nc(C(N)=O)c3[nH]c(=O)n(-c4cccc(C(=O)NCCCCCNC(=O)CCCC[C@@H]5SC[C@@H]6NC(=O)N[C@@H]65)c4)c3n2)cc1
Activity [4]: Active

SMILES: COc1ccccc1-n1c(=O)[nH]c2c(C(N)=O)nc(-c3ccc4c(c3)OCO4)nc21
IC50 (NCI-H1975): 7.6 µM

Continued, values first:

Activity [4]: Active
SMILES: CCOc1ccc(-c2nc(/C(N)=N/O)c3[nH]c(=O)n(-c4cccc(C(=O)NCCCCCNC(=O)CCCC[C@@H]5SC[C@@H]6NC(=O)N[C@@H]65)c4)c3n2)cc1

Activity [4]: inactive
SMILES: CC(C)(C)OC(=O)NCCCCCNC(=O)CCCC[C@@H]1SC[C@@H]2NC(=O)N[C@@H]21
